8 compounds from PubChem BioAssay (NCI) can be followed below.

What all share (assay): growth of human tumour cells (NCI), 48 h
The test system of assay [1] is MCF7 breast.
In assay [2] the test system is RXF 393 renal.
In assay [3] the test system is SK-MEL-5 melanoma.
Assay [4] concerns HS 578T breast.
The subject of assay [5] is SW-620 colon.
Assay [6] relates to HCT-116 colon.
Assay [7] deals with A498 renal.
In assay [8] the test system is ACHN renal.
In assay [9] the test system is SK-MEL-2 melanoma.
The test system of assay [10] is SK-OV-3 ovarian.

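Step 1: Grow cells in 96-well plates. Step 2: Expose to compound for 48 hours at 5 concentrations. Step 3: Interpolate endpoints linearly; if unreached, use highest concentration. GI50: concentration for 50% inhibition of growth. TGI: total growth inhibition.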 Where only a bound is given, the exact number is not on record here.

For the compound `CN(/N=C/c1ccccc1O)c1ccc2ccccc2n1`, the TGI in assay [1] was 30.9 µM; in [2], 90 µM; in [3] it was greater than 100 µM; in assay [4], 72.8 µM; in assay [5], greater than 100 µM; in [6], greater than 100 µM. Also, the TGI in [7] was 38.8 µM; in assay [8], 66.6 µM; in assay [9], greater than 100 µM; in assay [10], 29.8 µM.

For the compound `COc1ccccc1NC(=O)CC(=O)n1nc(C)c(N=Nc2ccccc2Cl)c1C`, the TGI in assay [1], in assay [2], in assay [3], in [4], in assay [5] and in assay [6] was greater than 100 µM each time. Besides, the TGI in [7] was greater than 100 µM; in [8], greater than 100 µM; in assay [9], greater than 100 µM; in [10], 98.6 µM.

On to `CCCCc1n(Cc2ccc3ccccc3n2)cc[n+]1Cc1ccc2ccccc2n1`, for which the GI50 in assay [1] is 0.807 µM; in assay [2], 4.17 µM; in [3], 0.827 µM; in [4], 2.76 µM; in [5] it was 2.56 µM; in assay [6], 2.1 µM. Also, the GI50 in assay [7] was 3.01 µM; in assay [8], 17 µM; in assay [9] it was 1.43 µM; in [10], 2 µM. In addition, the TGI worked out at 11.2 µM in [1]; 16.5 µM in assay [2]; 2.21 µM in [3]; 16.5 µM in assay [4]; 13.7 µM in assay [5]; 11 µM in assay [6]. For the same compound, the TGI in assay [7] was found to be 12.9 µM; in assay [8], 42 µM; in [9] it was 5.58 µM; in assay [10] it was 7.23 µM.

With `COc1cc(NS(C)(=O)=O)ccc1Cc1c2ccccc2nc2ccccc12`, the GI50 in assay [1] was 0.0517 µM; in [2], 0.396 µM; in [3], 0.121 µM; in [4] it was 1.72 µM; in assay [5], 0.121 µM; in [6] it was 0.135 µM. In addition, the GI50 was 0.135 µM in assay [7], 0.0463 µM in assay [8], 1.43 µM in assay [9] and 0.115 µM in assay [10]. For the same compound, the TGI in assay [1] came out at 5 µM; in assay [2], 2.06 µM; in assay [3] it was 1.11 µM; in [4], 8.17 µM; in assay [5] it was 2.34 µM; in assay [6] it was 1.93 µM. For the same compound, the TGI turned out to be 1.15 µM in assay [7], 1.11 µM in [8], 3.2 µM in [9] and 1.02 µM in assay [10].

As to `COC(=O)C1=C(C(=O)ON)[C@@H]2C=C[C@@]1([C@@H](Cc1ccccc1)Nc1ccccc1)O2`, the GI50 in [1] was 2.34 µM; in [2], 1.67 µM; in [3], 14.7 µM; in assay [4], 19.5 µM; in [5], 1.8 µM; in assay [6], 1.67 µM. Further, the GI50 was 12.3 µM in [7], 1.67 µM in assay [8], 15.6 µM in [9] and 15.6 µM in assay [10]. The TGI in assay [1] came out at 8.12 µM; in assay [2], 3.04 µM; in assay [3], 27.8 µM; in [4], 68.7 µM; in assay [5] it was 3.51 µM; in assay [6] it was 3.24 µM. Besides, the TGI in assay [7] amounted to 24.8 µM; in assay [8], 3.04 µM; in assay [9] it was 30 µM; in assay [10] it was 29.2 µM.

For `FC(F)(F)c1cc(NC(=S)N2c3ccccc3-n3cccc3C2c2cccnc2)cc(C(F)(F)F)c1` (stereo not given), the GI50 is 12.9 µM in assay [1]; 11 µM in [2]; 11.6 µM in [3]; 12.5 µM in assay [4]; 4.31 µM in assay [5]; 12.4 µM in [6]. In addition, the GI50 was 13.7 µM in assay [7], 7.11 µM in assay [8], 12.7 µM in assay [9] and 11.9 µM in [10]. The TGI in [1] was determined as 32 µM; in assay [2] it was 35.8 µM; in assay [3] it was 23.9 µM; in [4] it was 40.6 µM; in assay [5] it was 19.6 µM; in assay [6], 40.3 µM. Moreover, the TGI in [7] is 30.3 µM; in assay [8], 62 µM; in assay [9], 31.6 µM; in [10], 27.5 µM.

Take `CC1(C)N=c2cc3c(cc2N1c1ccc(Cl)cc1)=Nc1ccccc1N3c1ccc(Cl)cc1`: the GI50 in [1] is 2.41 µM; in [2] it was 1.75 µM; in assay [3], 3.64 µM; in [4], 12.2 µM; in assay [5], 4.68 µM; in assay [6], 3.68 µM. The GI50 in assay [7] was 8.37 µM; in assay [8], 3.53 µM; in assay [9], 3.9 µM; in [10] it was greater than 100 µM. In addition, the TGI in assay [1] is 23.4 µM; in assay [2], 5.77 µM; in assay [3], 20.3 µM; in [4] it was greater than 100 µM; in [5], 21.9 µM; in assay [6], greater than 100 µM. The TGI in assay [7], in [8], in assay [9] and in assay [10] was greater than 100 µM each time.

As to `O=[N+]([O-])c1ccc(N=Nc2c(Cl)cc(O)cc2Cl)cc1`, the GI50 in assay [1] was 1.17 µM; in assay [2], 2.51 µM; in assay [3], 1.48 µM; in assay [4] it was 1.11 µM; in assay [5], 1.6 µM; in assay [6], 0.722 µM. The GI50 in assay [7] is 1.73 µM; in assay [8], 1.01 µM; in assay [9] it was 1.66 µM; in assay [10], 2.1 µM. In addition, the TGI in [1] is 6.43 µM; in [2] it was 13.5 µM; in [3], 3.55 µM; in assay [4] it was 9.06 µM; in assay [5], 10.3 µM; in [6], 3.08 µM. The TGI in assay [7] worked out at 4.6 µM; in assay [8], 11.6 µM; in [9], 4.39 µM; in [10], 10.3 µM.
